US20060287315A1, “Pyrazinedicarboxamides and their use” (Bayer HealthCare AG, priority 2004, published 2006)
Counter-ions that a name gives are not always drawn.

Molecular target: human factor Xa (FXa) (Homo sapiens, UniProt P00742)
Assay: Determination of the factor Xa inhibition (chromogenic substrate)
Format: biochemical
Conditions: human FXa 0.5 nmol/l, Pefachrome FXa substrate, 25° C., pH 8.3, extinction at 405 nm
Experimental: A.1) Determination of the Factor Xa Inhibition:
The enzymatic inhibition of human factor Xa (FXa) is measured using the conversion of a chromogenic substrate specific for FXa. Factor Xa cleaves p-nitroaniline from the chromogenic substrate. The determinations are carried out in microtitre plates as follows:
The test substances, in various concentrations, are dissolved in DMSO and incubated for 10 minutes at 25° C. with human FXa (0.5 nmol/l dissolved in 50 mmol/l of Tris buffer [C,C,C-tris(hydroxymethyl)aminomethane], 150 mmol/l of NaCl, 0.1% BSA [bovine serum albumin], pH=8.3). Pure DMSO is used as control. The chromogenic substrate ([…] Pefachrome® FXa from Pentapharm) is then added. After an incubation time of 20 minutes at 25° C., the extinction at 405 nm is determined.

Sequence of human factor Xa (FXa) (P00742 235-488 limits assumed): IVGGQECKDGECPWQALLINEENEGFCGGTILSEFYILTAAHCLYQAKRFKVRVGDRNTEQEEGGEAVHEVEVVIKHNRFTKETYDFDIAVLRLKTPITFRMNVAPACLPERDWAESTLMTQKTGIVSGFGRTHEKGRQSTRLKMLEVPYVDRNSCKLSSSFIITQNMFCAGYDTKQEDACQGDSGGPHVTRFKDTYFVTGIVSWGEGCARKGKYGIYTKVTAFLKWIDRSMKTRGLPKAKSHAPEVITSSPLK
Sequence of human factor Xa (FXa) (P00742 41-179 partner limits assumed): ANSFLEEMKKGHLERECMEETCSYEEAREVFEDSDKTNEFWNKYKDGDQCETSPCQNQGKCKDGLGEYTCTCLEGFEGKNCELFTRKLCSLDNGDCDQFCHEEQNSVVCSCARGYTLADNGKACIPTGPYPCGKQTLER

IC50	SMILES
0.44 nM	O=C(Nc1ccc(Cl)cn1)c1nccnc1C(=O)Nc1ccc(-n2cccc(CNC3CC3)c2=O)cc1F [Example 30, N-(5-Chloropyridin-2-yl)-N′-{4-[3-[(cyclopropylamino)methyl]-2-oxopyridin-1(2H)-yl]-2-fluorophenyl}pyrazine-2,3-dicarboxamide trifluoracetate, trifluoroacetate]
7.5 nM	Cc1ccc(NC(=O)c2nccnc2C(=O)Nc2ccc(N3CCOCC3=O)cc2)cc1 [Example 18, N-(4-Methylphenyl)-N′-[4-(3-oxomorpholin-4-yl)phenyl]pyrazine-2,3-dicarboxamide]
6.3 nM	C#Cc1ccc(NC(=O)c2nccnc2C(=O)Nc2ccc(N3CCOCC3=O)cc2)cc1 [Example 20, N-(4-Ethynylphenyl)-N′-[4-(3-oxomorpholin-4-yl)phenyl]pyrazine-2,3-dicarboxamide]
0.49 nM	O=C(Nc1ccc(Cl)cc1)c1nccnc1C(=O)Nc1ccc(N2CCOCC2=O)cc1 [Example 11, N-(4-Chlorophenyl)-N′-[4-(3-oxomorpholin-4-yl)phenyl]pyrazine-2,3-dicarboxamide]
16 nM	O=C(Nc1ccc(F)cc1)c1nccnc1C(=O)Nc1ccc(N2CCOCC2=O)cc1 [Example 17, N-(4-Fluorophenyl)-N′[4-(3-oxomorpholin-4-yl)phenyl]pyrazine-2,3-dicarboxamide]
4.4 nM	O=C(Nc1ccc(Cl)cn1)c1nccnc1C(=O)Nc1ccc(N2CCCC(O)C2=O)cc1F (centres unmarked) [Example 9, N-(5-Chloropyridin-2-yl)-N′-[2-fluor-4-(3-hydroxy-2-oxopiperidin-1-yl)phenyl]pyrazine-2,3-di-carboxamide]
0.3 nM	NCCOc1cc(N2CCOCC2=O)ccc1NC(=O)c1nccnc1C(=O)Nc1ccc(Cl)cn1 [Example 32, N-[2-(2-Aminoethoxy)-4-(3-oxomorpholin-4-yl)phenyl]-N′-(5-chloropyridin-2-yl)pyrazine-2,3-dicarboxamide trifluoroacetate]
0.16 nM	O=C(Nc1ccc(N2CCOCC2=O)cc1)c1nccnc1C(=O)Nc1ccc(Cl)cn1 [Example 12, N-(5-Chloropyridin-2-yl)-N′[4-(3-oxomorpholin-4-yl)phenyl]pyrazine-2,3-dicarboxamide]
